Source: ChEMBL document CHEMBL1137686, “Synthesis and anticonvulsant activity of new N-[(4-arylpiperazin-1-yl)-alkyl] derivatives of 3-phenyl-pyrrolidine-2,5-dione” (Eur J Med Chem, 2009)
The source made the active and inactive calls. No cut-off for these calls is given here.

Assays:
Mus musculus [1] = test: Anticonvulsant activity in CF1 albino mouse assessed as protection against maximal electroshock-induced seizures at 30 mg/kg, po after 0.5 hrs; assay type: functional
Mus musculus [2] = test: Neurotoxicity in CF1 albino mouse assessed as motor impairment at 30 mg/kg, po after 0.25 hrs by rotarod test; assay type: toxicity, organism-based; set-up: dose 30 mg/kg, route oral; conditions: in vivo
Mus musculus [3] = test: Anticonvulsant activity in ip dosed CF1 albino mouse assessed as inhibition of maximal electroshock-induced seizures after 0.5 hrs; assay type: functional
Mus musculus [4] = test: Neurotoxicity in CF1 albino mouse assessed as motor impairment at 30 mg/kg, po after 1 hr by rotarod test; assay type: toxicity, organism-based; set-up: dose 30 mg/kg, route oral; conditions: in vivo
Mus musculus [5] = test: Anticonvulsant activity in CF1 albino mouse assessed as protection against maximal electroshock-induced seizures at 30 mg/kg, po after 4 hrs; assay type: functional
Mus musculus [6] = test: Neurotoxicity in CF1 albino mouse assessed as motor impairment at 30 mg/kg, po after 0.5 hrs by rotarod test; assay type: toxicity, organism-based; set-up: dose 30 mg/kg, route oral; conditions: in vivo
Mus musculus [7] = test: Neurotoxicity in CF1 albino mouse assessed as ability to maintain equilibrium for 1 min on […] at 300 mg/kg, ip after 4 hrs by rotarod test; assay type: toxicity, organism-based; set-up: dose 300 mg/kg, route intraperitoneal; conditions: in vivo
Mus musculus [8] = test: Neurotoxicity in CF1 albino mouse assessed as motor impairment at 30 mg/kg, po after 4 hrs by rotarod test; assay type: toxicity, organism-based; set-up: dose 30 mg/kg, route oral; conditions: in vivo
Mus musculus [9] = test: Anticonvulsant activity in CF1 albino mouse assessed as protection against maximal electroshock-induced seizures at 30 mg/kg, po after 0.25 hrs; assay type: functional
Mus musculus [10] = test: Neurotoxicity in CF1 albino mouse assessed as ability to maintain equilibrium for 1 min on […] at 300 mg/kg, ip after 0.5 hrs by rotarod test; assay type: toxicity, organism-based; set-up: dose 300 mg/kg, route intraperitoneal; conditions: in vivo
Mus musculus [11] = test: Anticonvulsant activity in CF1 albino mouse assessed as protection against maximal electroshock-induced seizures at 30 mg/kg, po after 2 hrs; assay type: functional
Mus musculus [12] = test: Anticonvulsant activity in ip dosed CF1 albino mouse assessed as inhibition of maximal electroshock-induced seizures after 4 hrs; assay type: functional
Mus musculus [13] = test: Anticonvulsant activity in CF1 albino mouse assessed as protection against maximal electroshock-induced seizures at 30 mg/kg, po after 1 hr; assay type: functional
Mus musculus [14] = test: Neurotoxicity in CF1 albino mouse assessed as motor impairment at 30 mg/kg, po after 2 hrs by rotarod test; assay type: toxicity, organism-based; set-up: dose 30 mg/kg, route oral; conditions: in vivo
Mus musculus [15] = test: Anticonvulsant activity in CF1 albino mouse assessed as inhibition of maximal electroshock-induced seizures at 300 mg/kg, ip after 4 hrs; assay type: functional, organism-based; set-up: dose 300 mg/kg
Mus musculus [16] = test: Neurotoxicity in ip dosed CF1 albino mouse assessed as ability to maintain equilibrium for 1 min on […] after 0.5 hrs by rotarod test; assay type: toxicity, organism-based; conditions: in vivo
Mus musculus [17] = test: Neurotoxicity in ip dosed CF1 albino mouse assessed as ability to maintain equilibrium for 1 min on […] after 4 hrs by rotarod test; assay type: toxicity, organism-based; conditions: in vivo
Mus musculus [18] = test: Toxicity in CF1 albino mouse assessed as myoclonic jerks at 100 mg/kg, ip after 4 hrs; assay type: organism-based; set-up: dose 100 mg/kg, route intraperitoneal; conditions: in vivo
Mus musculus [19] = test: Anticonvulsant activity in CF1 albino mouse assessed as inhibition of maximal electroshock-induced seizures at 300 mg/kg, ip after 0.5 hrs; assay type: functional, organism-based; set-up: dose 300 mg/kg
Mus musculus [20] = test: Neurotoxicity in CF1 albino mouse assessed as death at 300 mg/kg, ip after 0.5 hrs by rotarod test; assay type: toxicity, organism-based; set-up: dose 300 mg/kg, route intraperitoneal; conditions: in vivo
Mus musculus [21] = test: Neurotoxicity in CF1 albino mouse assessed as ability to grasp rotarod at 300 mg/kg, ip after 0.5 hrs by rotarod test; assay type: toxicity, organism-based; set-up: dose 300 mg/kg, route intraperitoneal; conditions: in vivo
Rattus norvegicus = test: Anticonvulsant activity in po dosed rat assessed as inhibition of maximal electroshock-induced seizures; assay type: functional

Structure (SMILES): Cc1ccccc1C1CC(=O)N(CCCN2CCN(c3cccc(C(F)(F)F)c3)CC2)C1=O (configuration not stated)
- Activity (Mus musculus [1]): inactive
- Activity (Mus musculus [2]): Non-toxic
- Activity (Mus musculus [3]): 100 mg/kg
- Activity (Mus musculus [4]): Non-toxic
- Activity (Mus musculus [5]): inactive
- Activity (Mus musculus [6]): Non-toxic
- Activity (Mus musculus [7]): Non-toxic
- Activity (Mus musculus [8]): Non-toxic
- Activity (Mus musculus [9]): inactive
- Activity (Mus musculus [10]): Non-toxic
- Activity (Mus musculus [11]): inactive
- Activity (Mus musculus [12]): 100 mg/kg
- Activity (Mus musculus [13]): inactive
- Activity (Mus musculus [14]): 25%

Structure (SMILES): COc1ccccc1N1CCN(CN2C(=O)CC(c3ccccc3C)C2=O)CC1.Cl (configuration not stated)
- Activity (Mus musculus [15]): inactive
- Activity (Mus musculus [3]): 300 mg/kg
- Activity (Mus musculus [16]): 100 mg/kg
- Activity (Mus musculus [17]): 300 mg/kg
- Activity (Mus musculus [18]): Toxic

Structure (SMILES): O=C1CC(c2ccccc2C(F)(F)F)C(=O)N1CCN1CCN(c2ccccc2)CC1 (configuration not stated)
- Activity (Mus musculus [15]): inactive
- Activity (Mus musculus [7]): Non-toxic
- Activity (Mus musculus [19]): inactive
- Activity (Mus musculus [10]): Non-toxic

Structure (SMILES): O=C1CC(c2ccccc2C(F)(F)F)C(=O)N1CCN1CCN(c2cccc(Cl)c2)CC1 (configuration not stated)
- Activity (Mus musculus [1]): inactive
- Activity (Mus musculus [2]): Non-toxic
- Activity (Mus musculus [4]): Non-toxic
- Activity (Mus musculus [5]): inactive
- Activity (Mus musculus [6]): Non-toxic
- Activity (Mus musculus [7]): Non-toxic
- Activity (Mus musculus [8]): Non-toxic
- Activity (Mus musculus [9]): inactive
- Activity (Mus musculus [19]): inactive
- Activity (Mus musculus [10]): Non-toxic
- Activity (Mus musculus [11]): inactive
- Activity (Mus musculus [12]): 100 mg/kg
- Activity (Mus musculus [13]): inactive
- Activity (Mus musculus [14]): Non-toxic

Structure (SMILES): Cc1ccccc1C1CC(=O)N(CN2CCN(c3cccc(Cl)c3)CC2)C1=O (configuration not stated)
- Activity (Mus musculus [15]): inactive
- Activity (Mus musculus [7]): Non-toxic
- Activity (Mus musculus [19]): inactive
- Activity (Mus musculus [10]): Non-toxic

Structure (SMILES): COc1ccccc1N1CCN(CCN2C(=O)CC(c3ccccc3C)C2=O)CC1 (configuration not stated)
- Activity (Mus musculus [15]): inactive
- Activity (Mus musculus [16]): 300 mg/kg
- Activity (Mus musculus [20]): Toxic
- Activity (Mus musculus [7]): Non-toxic
- Activity (Mus musculus [19]): inactive

Structure (SMILES): O=C1CC(c2ccccc2C(F)(F)F)C(=O)N1CCCN1CCN(c2ccccc2)CC1 (configuration not stated)
- Activity (Mus musculus [15]): inactive
- Activity (Mus musculus [3]): 300 mg/kg
- Activity (Mus musculus [16]): 300 mg/kg
- Activity (Mus musculus [21]): Toxic
- Activity (Mus musculus [7]): Non-toxic

Structure (SMILES): Cc1ccccc1C1CC(=O)N(CN2CCN(c3ccccc3)CC2)C1=O (configuration not stated)
- Activity (Mus musculus [16]): 100 mg/kg
- Activity (Mus musculus [17]): 300 mg/kg
- Activity (Mus musculus [19]): inactive
- Activity (Mus musculus [12]): 300 mg/kg

Structure (SMILES): O=C1CC(c2ccccc2C(F)(F)F)C(=O)N1CCN1CCN(c2cccc(C(F)(F)F)c2)CC1 (configuration not stated)
- Activity (Mus musculus [15]): inactive
- Activity (Mus musculus [7]): Non-toxic
- Activity (Mus musculus [19]): inactive
- Activity (Mus musculus [10]): Non-toxic

Structure (SMILES): O=C1CC(c2ccccc2Cl)C(=O)N1CN1CCN(c2cccc(Cl)c2)CC1 (configuration not stated)
- ED50 (Rattus norvegicus): 14.2 mg/kg

Structure (SMILES): O=C1CC(c2ccccc2C(F)(F)F)C(=O)N1CN1CCN(c2cccc(Cl)c2)CC1 (configuration not stated)
- Activity (Mus musculus [1]): 25%
- Activity (Mus musculus [2]): Non-toxic
- Activity (Mus musculus [16]): 100 mg/kg
- Activity (Mus musculus [4]): Non-toxic
- Activity (Mus musculus [5]): 100%
- Activity (Mus musculus [6]): Non-toxic
- Activity (Mus musculus [17]): 100 mg/kg
- Activity (Mus musculus [8]): Non-toxic
- Activity (Mus musculus [9]): inactive
- Activity (Mus musculus [19]): inactive
- Activity (Mus musculus [11]): 100%
- Activity (Mus musculus [12]): 100 mg/kg
- Activity (Mus musculus [13]): 50%
- Activity (Mus musculus [14]): Non-toxic

Structure (SMILES): Cc1ccccc1C1CC(=O)N(CN2CCN(c3ccccc3F)CC2)C1=O (configuration not stated)
- Activity (Mus musculus [15]): inactive
- Activity (Mus musculus [16]): 300 mg/kg
- Activity (Mus musculus [7]): Non-toxic
- Activity (Mus musculus [19]): inactive

Structure (SMILES): O=C1CC(c2ccccc2C(F)(F)F)C(=O)N1CCCN1CCN(c2cccc(Cl)c2)CC1 (configuration not stated)
- Activity (Mus musculus [3]): 100 mg/kg
- Activity (Mus musculus [16]): 100 mg/kg
- Activity (Mus musculus [17]): 300 mg/kg
- Activity (Mus musculus [12]): 100 mg/kg

Structure (SMILES): COc1ccccc1N1CCN(CCCN2C(=O)CC(c3ccccc3C(F)(F)F)C2=O)CC1 (configuration not stated)
- Activity (Mus musculus [15]): inactive
- Activity (Mus musculus [16]): 100 mg/kg
- Activity (Mus musculus [17]): 300 mg/kg
- Activity (Mus musculus [19]): inactive

Structure (SMILES): Cc1ccccc1C1CC(=O)N(CCCN2CCN(c3cccc(Cl)c3)CC2)C1=O (configuration not stated)
- Activity (Mus musculus [1]): inactive
- Activity (Mus musculus [2]): Non-toxic
- Activity (Mus musculus [3]): 300 mg/kg
- Activity (Mus musculus [16]): 300 mg/kg
- Activity (Mus musculus [4]): Non-toxic
- Activity (Mus musculus [5]): inactive
- Activity (Mus musculus [6]): Non-toxic
- Activity (Mus musculus [7]): Non-toxic
- Activity (Mus musculus [8]): Non-toxic
- Activity (Mus musculus [9]): inactive
- Activity (Mus musculus [11]): 25%
- Activity (Mus musculus [12]): 100 mg/kg
- Activity (Mus musculus [13]): inactive
- Activity (Mus musculus [14]): Non-toxic

Structure (SMILES): Cc1ccccc1C1CC(=O)N(CCN2CCN(c3ccccc3)CC2)C1=O (configuration not stated)
- Activity (Mus musculus [15]): inactive
- Activity (Mus musculus [16]): 300 mg/kg
- Activity (Mus musculus [7]): Non-toxic
- Activity (Mus musculus [19]): inactive

Structure (SMILES): O=C1CC(c2ccccc2C(F)(F)F)C(=O)N1CN1CCN(c2cccc(C(F)(F)F)c2)CC1 (configuration not stated)
- Activity (Mus musculus [3]): 100 mg/kg
- Activity (Mus musculus [16]): 300 mg/kg
- Activity (Mus musculus [7]): Non-toxic
- Activity (Mus musculus [12]): 100 mg/kg

Structure (SMILES): Cc1ccccc1C1CC(=O)N(CCN2CCN(c3ccccc3F)CC2)C1=O (configuration not stated)
- Activity (Mus musculus [16]): 300 mg/kg
- Activity (Mus musculus [7]): Non-toxic
- Activity (Mus musculus [19]): inactive
- Activity (Mus musculus [12]): 300 mg/kg

Structure (SMILES): Cc1ccccc1C1CC(=O)N(CCN2CCN(c3cccc(C(F)(F)F)c3)CC2)C1=O (configuration not stated)
- Activity (Mus musculus [3]): 300 mg/kg
- Activity (Mus musculus [7]): Non-toxic
- Activity (Mus musculus [10]): Non-toxic
- Activity (Mus musculus [12]): 300 mg/kg

Structure (SMILES): COc1ccccc1N1CCN(CCCN2C(=O)CC(c3ccccc3C)C2=O)CC1 (configuration not stated)
- Activity (Mus musculus [15]): inactive
- Activity (Mus musculus [16]): 100 mg/kg
- Activity (Mus musculus [7]): Non-toxic
- Activity (Mus musculus [19]): inactive

Structure (SMILES): O=C1CC(c2ccccc2C(F)(F)F)C(=O)N1CN1CCN(c2ccccc2F)CC1 (configuration not stated)
- Activity (Mus musculus [1]): 25%
- Activity (Mus musculus [2]): Non-toxic
- Activity (Mus musculus [16]): 100 mg/kg
- Activity (Mus musculus [4]): Non-toxic
- Activity (Mus musculus [5]): 25%
- Activity (Mus musculus [6]): Non-toxic
- Activity (Mus musculus [17]): 300 mg/kg
- Activity (Mus musculus [8]): Non-toxic
- Activity (Mus musculus [19]): inactive
- Activity (Mus musculus [11]): inactive
- Activity (Mus musculus [12]): 30 mg/kg
- Activity (Mus musculus [13]): 25%
- Activity (Mus musculus [14]): Non-toxic

Structure (SMILES): O=C1CC(c2ccccc2C(F)(F)F)C(=O)N1CCN1CCN(c2ccccc2F)CC1 (configuration not stated)
- Activity (Mus musculus [15]): inactive
- Activity (Mus musculus [7]): Non-toxic
- Activity (Mus musculus [19]): inactive
- Activity (Mus musculus [10]): Non-toxic
